Among the data in patent US20250136581A1, “SUBSTITUTED TRIAZOLE DERIVATIVE, PREPARATION METHOD THEREFOR, PHARMACEUTICAL COMPOSITION THEREOF, AND USE THEREOF” (SHANGHAI SIMR BIOTECHNOLOGY CO., LTD., priority 2021, published 2025) are Ki and inhibition values, retold here.

Experiment [1] addresses human α2β3γ2 receptors (Homo sapiens (Human), UniProt P18507+P47869). The experiment in a line: 3H-flunitrazepam competition binding, human α2β3γ2 GABAA receptor. As to conditions: HEK293 cell membranes, 1 nM 3H-flunitrazepam; read-out: Ki α2. The protocol: (§1) The affinity of the compound to each subtype of GABAA receptor was determined by competing for the binding of ^3H-flunitrazepam to HEK293 cells stably expressing human α1β3γ2, α2β3γ2, α3β3γ2, and α5β3γ2 receptors.
(§2) The cells were suspended in 50 mM Tris-HCl buffer (pH=7.4), homogenized 10 times on ice with a homogenizer for 20 seconds, and centrifuged at 1000 g for 10 minutes at 4° C. The supernatant was collected, and the above steps were repeated. The supernatant was centrifuged at 4° C. (33800 g; Thermo, rotor: A27-8×50) for 60 minutes, and the precipitate was resuspended in Tris buffer (50 mM Tris-HCl, 10 mM MgCl2, 0.5 mM EDTA, 10% glycerol). Protein was measured (BCA method, Pierce), and 1 mL aliquots were prepared and stored at −80° C.
(§3) The radioligand competition binding assay was performed in a 200 μL system (96-well plate) containing 100 μL of cell membrane. The concentration of ^3H-flunitrazepam was 1 nM and the concentration of the test compound was in the range of […]. Flumazenil was used as a control. 1 μL of 2 mM flumazenil (final concentration […]) was added to the low signal control well (Low control, LC), and 1 μL of DMSO was added to the high signal control well (High control, HC). The final concentration of target membrane protein was […]. All test compound sample storage solutions were 10 mM. The working concentration of the samples was to dilute all the samples to 0.2 mM with DMSO, followed by 4-fold serial gradient dilutions for a total of 8 concentration gradients. The 96-well plate was sealed with a sealing film, and then incubated on a shaker at room temperature for 1 hour. At the same time, the GF/C filter plate was soaked in soaking buffer (0.3% PEI, stored at 4° C.) for at least 0.5 hours. After the binding incubation was completed, the cells were collected onto a GF/C filter plate using a cell harvester. The plate was washed four times with washing buffer (50 mM Tris-HCl, pH 7.4, stored at 4° C.). After drying in a 50° C. oven for 1 hour, the bottom of the dried GF/C filter plate was sealed. The residual radioactivity on the filter membrane was detected using liquid scintillation counting. 50 μL of scintillation fluid was added to each well, and the plate was sealed. The readings were taken using a Microbeta2. The inhibitory activity of the test sample on the binding of ^3H-flunitrazepam to GABAA receptor membrane proteins was calculated, and the IC50 of each test sample was calculated by dose-effect curve fitting (GraphPad Prism 5 software), and the Ki of the sample was calculated from the IC50, thus evaluating the binding ability of the sample to the various subtypes of GABAA receptors.

In experiment [2] the target is human α5β3γ2 receptors (α5-GABAA receptor) (Homo sapiens (Human), UniProt P18507+P31644). The experiment in a line: 3H-flunitrazepam competition binding, human α5β3γ2 GABAA receptor. The settings on record: HEK293 cell membranes, 1 nM 3H-flunitrazepam. A digest of the protocol: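 HEK293 membranes stably expressing each human receptor subtype ([…]) competed against 1 nM 3H-flunitrazepam in Tris buffer, 1 h at room temperature; flumazenil defined the low-signal control. Eight-point 4-fold test-compound dilutions; GF/C filtration and scintillation counting gave IC50 by curve fitting, converted to Ki.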

The target of experiment [3] is human α1β3γ2 receptors (Homo sapiens (Human), UniProt P14867+P18507). The experiment in a line: 3H-flunitrazepam competition binding, human α1β3γ2 GABAA receptor. The settings on record: HEK293 cell membranes, 1 nM 3H-flunitrazepam; read-out: Ki α1. The protocol: as §1, §2, §3
Experiment [4] has as its target α5-GABAA receptor (α5, β3, γ2 subunits) (Homo sapiens (Human), UniProt P18507+P31644). Briefly: Whole cell patch clamp, inverse agonist efficacy in HEK293 cells expressing α5-GABAA receptor. In kind it is cell-based. The settings on record: HEK293, drug 100 nM, GABA 0.05 μM, −60 mV; read-out: Compound inverse agonist efficacy %. A digest of the protocol: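 Stable HEK293 line co-expressing human α5, β3, γ2 subunits; whole-cell patch clamp at −60 mV, inward current evoked by 0.05 μM GABA, then compound at 100 nM in GABA solution applied. Effect derived from leak, pre- and post-drug GABA currents.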

Read-outs that look alike come from different tables or passages of the source.

On to `Cc1nnn(-c2ccc(C(F)F)cc2)c1COc1ccc(N2CCN(C)C2=O)nn1` [Example 24, 1-(6-((1-(4-(Difluoromethyl)phenyl)-4-methyl-1H-1,2,3-triazol-5-yl)methoxy)pyridazin-3-yl)-3-methylimidazolidin-2-one], for which the figures for the Ki in experiment [1], in experiment [2] (read-out: α5-GABAAR Ki) and in experiment [3] were 17 nM, 7.72 nM and 19.3 nM, respectively.

Turning to `Cc1nnn(-c2ccc(C(F)F)cc2)c1COc1ccc(N2CCN(CCN3CCOCC3)C(=O)C2)nn1` [Example 95, 4-(6-((1-(4-(Difluoromethyl)phenyl)-4-methyl-1H-1,2,3-triazol-5-yl)methoxy)pyridazin-3-yl)-1-(2-morpholinoethyl)piperazin-2-one], the Ki in experiment [2] (read-out: α5-GABAAR Ki) stood at 0.67 nM; in experiment [3], 6.23 nM. Moreover, the inhibition at 0.1 µM in experiment [4] was found to be 51.9%.

For the molecule `Cc1nnn(-c2ccc(C(F)F)cc2)c1COc1ccc(N2CC(C(=O)N3CC(C)OC(C)C3)C2)nn1` (centres unmarked) [Example 156, (1-(6-((1-(4-(Difluoromethyl)phenyl)-4-methyl-1H-1,2,3-triazol-5-yl)methoxy)pyridazin-3-yl)azetidin-3-yl)(2,6-dimethylmorpholino)methanone], the Ki in experiment [2] (read-out: α5-GABAAR Ki) is 4.13 nM. Also, the inhibition at 0.1 µM in experiment [4] amounted to 44.3%.

Consider `Cc1nnn(-c2ccc(C(F)F)cc2)c1COc1ccc(N2CC(C(=O)N3CC4CC3CO4)C2)nn1` (centres unmarked) [Example 157, (2-Oxa-5-azabicyclo[2.2.1]heptan-5-yl)(1-(6-((1-(4-(difluoromethyl)phenyl)-4-methyl-1H-1,2,3-triazol-5-yl)methoxy)pyridazin-3-yl)azetidin-3-yl)methanone], for which, in experiment [2] (read-out: α5-GABAAR Ki), the Ki came out at 3.53 nM. The inhibition at 0.1 µM in experiment [4] was 44.2%.

Take `CCNC(=O)C1CN(c2ccc(OCc3c(C)nnn3-c3ccc(C(F)F)cc3)nc2)C1` [Example 159, 1-(6-((1-(4-(Difluoromethyl)phenyl)-4-methyl-1H-1,2,3-triazol-5-yl)methoxy)pyridin-3-yl)-N-ethylazetidine-3-carboxamide]: the Ki in experiment [2] (read-out: α5-GABAAR Ki) turned out to be 20 nM. Besides, the inhibition at 0.1 µM in experiment [4] stood at 49.9%.

In the case of `Cc1nnn(-c2ccc(C(F)F)cc2)c1COc1ccc(N2CC(C(=O)N3CCOCC3)C2)cn1` [Example 160, (1-(6-((1-(4-(Difluoromethyl)phenyl)-4-methyl-1H-1,2,3-triazol-5-yl)methoxy)pyridin-3-yl)azetidin-3-yl)(morpholino)methanone], the Ki in experiment [2] (read-out: α5-GABAAR Ki) was 6.21 nM. For the same molecule, in experiment [4], the inhibition at 0.1 µM amounted to 42.7%.

For the molecule `Cc1nnn(-c2ccc(CF)cc2)c1COc1ccc(N2CCN3CCNC(=O)[C@@H]3C2)nn1` [Example 162, (S)-8-(6-((1-(4-(Fluoromethyl)phenyl)-4-methyl-1H-1,2,3-triazol-5-yl)methoxy)pyridazin-3-yl)hexahydro-2H-pyrazino[1,2-a]pyrazin-1(6H)-one], the Ki in experiment [2] (read-out: α5-GABAAR Ki) amounted to 2.58 nM. Further, the inhibition at 0.1 µM in experiment [4] came out at 47.7%.

`Cc1nnn(-c2ccc(Cl)cc2)c1COc1ccc(N2CCN3CCNC(=O)[C@@H]3C2)nn1` [Example 163, (S)-8-(6-((1-(4-Chlorophenyl)-4-methyl-1H-1,2,3-triazol-5-yl)methoxy)pyridazin-3-yl)hexahydro-2H-pyrazino[1,2-a]pyrazin-1(6H)-one]: in experiment [2] (read-out: α5-GABAAR Ki), the Ki was determined as 26.4 nM. Moreover, in experiment [4], the inhibition at 0.1 µM is 43.6%.

As to `Cc1nnn(-c2ccc(C(F)F)cc2F)c1COc1ccc(N2CCN3CCNC(=O)[C@@H]3C2)nn1` [Example 168, (S)-8-(6-((1-(4-(Difluoromethyl)-2-fluorophenyl)-4-methyl-1H-1,2,3-triazol-5-yl)methoxy)pyridazin-3-yl)hexahydro-2H-pyrazino[1,2-a]pyrazin-1(6H)-one], the Ki in experiment [2] (read-out: α5-GABAAR Ki) was determined as 2.84 nM. The inhibition at 0.1 µM in experiment [4] turned out to be 42.4%.

Regarding `CC(=O)N1CCN(c2ccc(OCc3c(C)nnn3-c3ccc(C(F)F)cc3)nn2)CC1` [Example 171, 1-(4-(6-((1-(4-(Difluoromethyl)phenyl)-4-methyl-1H-1,2,3-triazol-5-yl)methoxy)pyridazin-3-yl)piperazin-1-yl)ethan-1-one], the Ki in experiment [2] (read-out: α5-GABAAR Ki) stood at 1.07 nM. The inhibition at 0.1 µM in experiment [4] came out at 42%.

For the molecule `Cc1nnn(-c2ccc(C(F)F)cc2)c1COc1cnc(N2CCN3CCNC(=O)[C@@H]3C2)cn1` [Example 178, (S)-8-(5-((1-(4-(Difluoromethyl)phenyl)-4-methyl-1H-1,2,3-triazol-5-yl)methoxy)pyrazin-2-yl)hexahydro-2H-pyrazino[1,2-a]pyrazin-1(6H)-one], the inhibitory constant (Ki) in experiment [2] (read-out: α5-GABAAR Ki) turned out to be 17.2 nM. The inhibition at 0.1 µM in experiment [4] is 49.7%.

`Cc1nnn(-c2ccc(C(F)F)cc2)c1COc1ccc(N2CC3COCCN3C2=O)nn1` (centres unmarked) [Example 180, 2-(6-((1-(4-(Difluoromethyl)phenyl)-4-methyl-1H-1,2,3-triazol-5-yl)methoxy)pyridazin-3-yl)hexahydro-3H-imidazo[5,1-c][1,4]oxazin-3-one]: the Ki in experiment [2] (read-out: α5-GABAAR Ki) was found to be 1.19 nM. Moreover, the inhibition at 0.1 µM in experiment [4] came to 40.3%.

As to `O=C1CN(c2ccc(OCc3c(Cl)nnn3-c3ccc(F)cc3)nn2)CCN1` [Example 189, 4-(6-((4-Chloro-1-(4-fluorophenyl)-1H-1,2,3-triazol-5-yl)methoxy)pyridazin-3-yl)piperazin-2-one], in experiment [2] (read-out: α5-GABAAR Ki), the Ki came out at 9.44 nM. Further, the inhibition at 0.1 µM in experiment [4] was 42.1%.

In experiment [2] (α5-GABAAR Ki), `Cc1nnn(-c2ccc(C(F)F)cc2)c1COc1ccc(N2CCN3[C@@H]4CCC[C@@H]4NC(=O)[C@@H]3C2)nn1` [Example 197, (4aS,6aS,9aR)-3-(6-((1-(4-(Difluoromethyl)phenyl)-4-methyl-1H-1,2,3-triazol-5-yl)methoxy)pyridazin-3-yl)decahydrocyclopenta[e]pyrazino[1,2-a]pyrazin-5(1H)-one] registered a Ki of 4.95 nM. Also, the inhibition at 0.1 µM in experiment [4] turned out to be 52.4%.

Consider `Cc1nnn(-c2ccc(C(F)F)cc2)c1COc1ccc(N2CCN3[C@@H](C2)C(=O)N[C@@H]2CCC[C@@H]23)nn1` [Example 198, (4aS,6aR,9aS)-3-(6-((1-(4-(difluoromethyl)phenyl)-4-methyl-1H-1,2,3-triazol-5-yl)methoxy)pyridazin-3-yl)decahydrocyclopenta[e]pyrazino[1,2-a]pyrazin-5(1H)-one], for which affinity in experiment [2] (α5-GABAAR Ki) was put at a Ki of 3.13 nM. Moreover, the inhibition at 0.1 µM in experiment [4] was 48.2%.

Consider `Cc1nnn(-c2ccc(C(F)F)cc2)c1COc1ccc(N2CCN3C4CCCCC4NC(=O)[C@@H]3C2)nn1` (stereo partly drawn) [Example 199, (4aS)-3-(6-((1-(4-(Difluoromethyl)phenyl)-4-methyl-1H-1,2,3-triazol-5-yl)methoxy)pyridazin-3-yl)decahydro-1H-pyrazino[1,2-a]quinoxalin-5(6H)-one], for which affinity in experiment [2] (α5-GABAAR Ki) was put at a Ki of 3.17 nM. For the same molecule, the inhibition at 0.1 µM in experiment [4] turned out to be 60.2%.

Take `Cc1nnn(-c2ccc(C(F)F)cc2)c1COc1ccc(N2CCN3CC(C(C)C)NC(=O)[C@@H]3C2)nn1` (stereo partly drawn) [Example 200, (9aS)-8-(6-((1-(4-(Difluoromethyl)phenyl)-4-methyl-1H-1,2,3-triazol-5-yl)methoxy)pyridazin-3-yl)-3-isopropylhexahydro-2H-pyrazino[1,2-a]pyrazin-1(6H)-one]: the Ki in experiment [2] (read-out: α5-GABAAR Ki) stood at 1.9 nM. The inhibition at 0.1 µM in experiment [4] came out at 60.1%.

`Cc1nnn(-c2ccc(C(F)F)cc2)c1COc1ccc(N2CCN3C(C(C)C)CNC(=O)[C@@H]3C2)nn1` (some centres unmarked) [Example 207]: the Ki in experiment [2] (read-out: α5-GABAAR Ki) was 4.92 nM. For the same molecule, in experiment [4], the inhibition at 0.1 µM was determined as 51.9%.
